{"source": "paper PMC8969299", "about": "(Chemical Engineering Journal, 2022)", "key": {"SARS-CoV-2 S protein RBD": {"molecular_target": "SARS-CoV-2 S protein RBD (Severe acute respiratory syndrome coronavirus 2, UniProt P0DTC2)"}, "influenza B virus": {"tested_on": "influenza B virus", "assay": "Fluorescence response of COVID19-PEB to influenza B virus", "set-up": "species or system influenza B viruses (Victoria Brisbane/20/2009)", "conditions": "COVID 19-PEB 10 nmol in 100 µL; 25 °C; n = 3; Fig. 4e"}, "[1]": {"tested_on": "SARS-CoV-2 and its variants"}, "[2]": {"assay": "Fluorescence lifetime of COVID19-PEB before/after annealing", "assay_type": "physicochemical", "conditions": "before annealing; Oligo-Cy3 and Oligo-BHQ2 fixed at 10 nmol; Fig. 3c"}, "HCoV-OC43": {"tested_on": "HCoV-OC43", "assay": "Fluorescence response of COVID19-PEB to HCoV-OC43", "set-up": "species or system Human coronavirus OC43 (HCoV-OC43)", "conditions": "COVID 19-PEB 10 nmol in 100 µL; 25 °C; n = 3; Fig. 4f"}, "SARS-CoV-2 [3]": {"tested_on": "SARS-CoV-2", "assay": "Detection of SARS-CoV-2 in clinical patient samples using COVID19-PEB"}, "SARS-CoV-2 [4]": {"tested_on": "SARS-CoV-2", "assay": "Fluorescence detection of SARS-CoV-2 in biofluids", "conditions": "10% nasal fluid and 10% saliva; n = 3; Fig. 5"}, "SARS-CoV-2 [5]": {"tested_on": "SARS-CoV-2", "assay": "Fluorescence"}, "influenza A virus": {"tested_on": "influenza A virus", "assay": "Fluorescence response of COVID19-PEB to influenza A virus", "set-up": "species or system influenza A (pH1N1) virus (Human/Canada/2009)", "conditions": "COVID 19-PEB 10 nmol in 100 µL; 25 °C; n = 3; Fig. 4d"}}, "data": [{"substance": "Cy3-TTTTGGGGG- I EEQA KTFL DKFN HEAE DLFY QSSL ASWK-CCCCCAAAA-BHQ2 [COVID19-PEB]", "values": [{"measurement": "fluorescence intensity with increasing concentration of S proteins", "setting": "SARS-CoV-2 S protein RBD", "result": "gradually increased with the increasing concentration of the S proteins"}, {"measurement": "time within which intensity change could be measured, S protein RBD", "setting": "SARS-CoV-2 S protein RBD", "result": "≤ 1", "unit": "h"}, {"measurement": "change in fluorescence signal, influenza B virus", "setting": "influenza B virus", "result": "no change in fluorescence signal was observed"}, {"measurement": "discrimination among genetic mutations in SARS-CoV-2", "setting": "[1]", "result": "does not effectively discriminate among the genetic mutations in SARS-CoV-2"}, {"measurement": "detection of SARS-CoV-2 and its variants", "setting": "[1]; Fig. S5", "result": "useful for sensitive and rapid detection of SARS-CoV-2 and its variants"}, {"measurement": "fluorescence lifetime", "setting": "[2]", "result": "2.23 ± 0.02", "unit": "ns"}, {"measurement": "change in fluorescence signal, HCoV-OC43", "setting": "HCoV-OC43", "result": "no change in fluorescence signal was observed"}, {"measurement": "detection of virus in PCR-confirmed patient samples", "setting": "SARS-CoV-2 [3]", "result": "accurately detected the virus"}, {"measurement": "detection of SARS-CoV-2 in biofluid", "setting": "SARS-CoV-2 [4]", "result": "efficiently detected SARS-CoV-2 in the biofluid, with high sensitivity"}, {"measurement": "detection time, SARS-CoV-2", "setting": "SARS-CoV-2 [5]; COVID19-PEB", "result": "≤ 3", "unit": "h"}, {"measurement": "detection time, SARS-CoV-2 (shortest stated)", "setting": "SARS-CoV-2 [5]; COVID19-PEB", "result": "≤ 50", "unit": "min"}, {"measurement": "time within which intensity change could be measured, SARS-CoV-2", "setting": "SARS-CoV-2 [5]; COVID 19-PEB 10 nmol, Fig. S4", "result": "≤ 1", "unit": "h"}, {"measurement": "detection limit, SARS-CoV-2", "setting": "SARS-CoV-2 [5]; COVID19-PEB fluorescence, 100 µL test", "result": "4 × 10^3 plaque-forming unit/test"}, {"measurement": "change in fluorescence signal, influenza A virus", "setting": "influenza A virus", "result": "no change in fluorescence signal was observed"}]}]}
